Measurements: PubChem BioAssay (NCI)
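96-well plates; 48 h exposure; 5 concentrations. Endpoints by linear interpolation between flanking doses. Not reached: highest tested concentration assigned. The concentration for 50% growth inhibition is given as GI50. The concentration for full growth arrest is given as TGI.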

Tests used:
Assay in all cases: growth of human tumour cells (NCI), 48 h
786-0 renal = system: 786-0 renal
A498 renal = system: A498 renal
A549 NSCLC = system: A549 NSCLC
ACHN renal = system: ACHN renal
BT-549 breast = system: BT-549 breast
CAKI-1 renal = system: CAKI-1 renal
CCRF-CEM leukemia = system: CCRF-CEM leukemia
COLO 205 colon = system: COLO 205 colon
DU-145 prostate = system: DU-145 prostate
EKVX NSCLC = system: EKVX NSCLC
HCC-2998 colon = system: HCC-2998 colon
HCT-116 colon = system: HCT-116 colon
HCT-15 colon = system: HCT-15 colon
HOP-62 NSCLC = system: HOP-62 NSCLC
HOP-92 NSCLC = system: HOP-92 NSCLC
HS 578T breast = system: HS 578T breast
HT29 colon = system: HT29 colon
IGROV1 ovarian = system: IGROV1 ovarian
K-562 leukemia = system: K-562 leukemia
KM12 colon = system: KM12 colon
LOX IMVI melanoma = system: LOX IMVI melanoma
M14 melanoma = system: M14 melanoma
MALME-3M melanoma = system: MALME-3M melanoma
MCF7 breast = system: MCF7 breast
MDA-MB-231 breast = system: MDA-MB-231 breast
MDA-MB-435 = system: MDA-MB-435
MOLT-4 leukemia = system: MOLT-4 leukemia
NCI-H226 lung = system: NCI-H226 lung
NCI-H23 lung = system: NCI-H23 lung

Structure (SMILES): N#CC(C#N)=C/C=C(\Sc1ccc(Cl)cc1)c1ccc(F)cc1
- GI50 (786-0 renal): 420 nM
- TGI (786-0 renal): 3070 nM
- GI50 (A498 renal): 3420 nM
- TGI (A498 renal): 8670 nM
- GI50 (A549 NSCLC): 8610 nM
- TGI (A549 NSCLC): 32300 nM
- GI50 (ACHN renal): 1520 nM
- TGI (ACHN renal): > 27700 nM
- GI50 (BT-549 breast): 1160 nM
- TGI (BT-549 breast): 6220 nM
- GI50 (CAKI-1 renal): 465 nM
- TGI (CAKI-1 renal): 2770 nM
- GI50 (CCRF-CEM leukemia): 17.7 nM
- TGI (CCRF-CEM leukemia): > 100000 nM
- GI50 (COLO 205 colon): 4110 nM
- TGI (COLO 205 colon): > 38500 nM
- GI50 (DU-145 prostate): 525 nM
- TGI (DU-145 prostate): > 33600 nM
- GI50 (EKVX NSCLC): 15700 nM
- TGI (EKVX NSCLC): 52500 nM
- GI50 (HCC-2998 colon): 2870 nM
- TGI (HCC-2998 colon): 6170 nM
- GI50 (HCT-116 colon): 67.1 nM
- TGI (HCT-116 colon): 508 nM
- GI50 (HCT-15 colon): 1490 nM
- TGI (HCT-15 colon): > 33100 nM
- GI50 (HOP-62 NSCLC): 2540 nM
- TGI (HOP-62 NSCLC): 16000 nM
- GI50 (HOP-92 NSCLC): 501 nM
- TGI (HOP-92 NSCLC): 13200 nM
- GI50 (HS 578T breast): 2750 nM
- TGI (HS 578T breast): 22800 nM
- GI50 (HT29 colon): 2060 nM
- TGI (HT29 colon): > 51600 nM
- GI50 (IGROV1 ovarian): 2090 nM
- TGI (IGROV1 ovarian): 12300 nM
- GI50 (K-562 leukemia): 84.4 nM
- TGI (K-562 leukemia): > 100000 nM
- GI50 (KM12 colon): 870 nM
- TGI (KM12 colon): 3730 nM
- GI50 (LOX IMVI melanoma): 403 nM
- GI50 (M14 melanoma): 729 nM
- TGI (M14 melanoma): 2610 nM
- GI50 (MALME-3M melanoma): 1600 nM
- TGI (MALME-3M melanoma): 6280 nM
- GI50 (MCF7 breast): 982 nM
- TGI (MCF7 breast): > 100000 nM
- GI50 (MDA-MB-231 breast): 1840 nM
- TGI (MDA-MB-231 breast): 6250 nM
- GI50 (MDA-MB-435): 810 nM
- TGI (MDA-MB-435): 2910 nM
- GI50 (MOLT-4 leukemia): 281 nM
- GI50 (NCI-H226 lung): 2720 nM
- TGI (NCI-H226 lung): 17800 nM
- GI50 (NCI-H23 lung): 528 nM
